The record followed here is PubChem BioAssay AID248 (DTP/NCI, 2004).

The assay has as its system L1210 leukemia ip in BDF1 mice, survival T/C. Kind of assay: NCI In Vivo Anticancer Drug Screen. Data for tumor model L1210 Leukemia (intraperitoneal) in B6D2F1 (BDF1) mice. The following applies: higher = longer survival. The essentials:
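Read-out is survival time, reported as the treated-group measurement over the vehicle-control measurement.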

Several values for one entry are separate records, joined by “and”; a condition that tells them apart may be missing. Identical values can stand only once. Inconclusive results and toxic doses are left out.

Regarding `NC(Cc1ccc(N(CCCl)CCCl)cc1)C(=O)O` (stereo not drawn), the T/C is, setting by setting: (endpoint: mean survival time, dose: 0.32 mg/kg/injection, schedule: Q01DX Z (ip), vehicle: carboxymethylcellulose (CMC)) 110 % of control; (endpoint: mean survival time, dose: 0.37 mg/kg/injection, schedule: Q01DX Z (im), vehicle: saline) 111 % of control; (endpoint: mean survival time, dose: 0.37 mg/kg/injection, schedule: Q01DX Z (ip), vehicle: saline) 111 % of control; (endpoint: mean survival time, dose: 0.37 mg/kg/injection, schedule: Q01DX Z (sc), vehicle: saline) 104 % of control; (endpoint: mean survival time, dose: 0.5 mg/kg/injection, schedule: Q01DX010 (ip), vehicle: alkali diluted with saline) 122 % of control and 123 % of control; (endpoint: mean survival time, dose: 0.51 mg/kg/injection, schedule: Q01DX Z (ip), vehicle: carboxymethylcellulose (CMC)) 119 % of control. Also, the T/C (endpoint: mean survival time, dose: 0.64 mg/kg/injection, schedule: Q01DX Z (ip), vehicle: carboxymethylcellulose (CMC)) is 122 % of control; the T/C (endpoint: mean survival time, dose: 0.75 mg/kg/injection, schedule: Q01DX Z (im), vehicle: saline) was 122 % of control; the T/C (endpoint: mean survival time, dose: 0.75 mg/kg/injection, schedule: Q01DX Z (ip), vehicle: saline) is 115 % of control; the T/C (endpoint: mean survival time, dose: 0.75 mg/kg/injection, schedule: Q01DX Z (sc), vehicle: saline) was 113 % of control; the T/C (endpoint: mean survival time, dose: 1.0 mg/kg/injection, schedule: Q01DX010 (ip), vehicle: alkali diluted with saline) was 123 % of control; the T/C (endpoint: mean survival time, dose: 1.0 mg/kg/injection, schedule: Q01DX Z (ip), vehicle: methylcellulose (MC)) is 151 % of control. The T/C is 118 % of control (endpoint: mean survival time, dose: 1.25 mg/kg/injection, schedule: Q01DX010 (ip), vehicle: saline); 151 % of control (endpoint: mean survival time, dose: 1.28 mg/kg/injection, schedule: Q01DX Z (ip), vehicle: carboxymethylcellulose (CMC)); 119 % of control (endpoint: mean survival time, dose: 1.5 mg/kg/injection, schedule: Q01DX Z (sc), vehicle: saline); 123 % of control and 124 % of control (endpoint: mean survival time, dose: 2.5 mg/kg/injection, schedule: Q01DX009 (ip), vehicle: saline); 166 % of control (endpoint: mean survival time, dose: 2.56 mg/kg/injection, schedule: Q01DX Z (ip), vehicle: carboxymethylcellulose (CMC)); 119 % of control (endpoint: mean survival time, dose: 3.0 mg/kg/injection, schedule: Q01DX006 (iv), vehicle: saline). Moreover, the T/C is, setting by setting: (endpoint: mean survival time, dose: 3.0 mg/kg/injection, schedule: Q01DX Z (im), vehicle: saline) 166 % of control and 176 % of control; (endpoint: mean survival time, dose: 3.0 mg/kg/injection, schedule: Q01DX Z (ip), vehicle: saline) 150 % of control and 201 % of control; (endpoint: mean survival time, dose: 3.0 mg/kg/injection, schedule: Q01DX Z (sc), vehicle: saline) 161 % of control; (endpoint: mean survival time, dose: 3.2 mg/kg/injection, schedule: Q01DX Z (ip), vehicle: saline) 113 % of control; (endpoint: mean survival time, dose: 4.0 mg/kg/injection, schedule: Q01DX009 (ip), vehicle: saline) 187 % of control and 200 % of control; (endpoint: mean survival time, dose: 5.0 mg/kg/injection, schedule: Q01DX009 (ip), vehicle: saline) 167 % of control. The T/C runs as follows: (endpoint: mean survival time, dose: 5.0 mg/kg/injection, schedule: Q01DX010 (ip), vehicle: saline) 152 % of control; (endpoint: mean survival time, dose: 6.0 mg/kg/injection, schedule: Q01DX006 (iv), vehicle: saline) 114 % of control; (endpoint: mean survival time, dose: 6.0 mg/kg/injection, schedule: Q01DX Z (im), vehicle: saline) 154 % of control; (endpoint: mean survival time, dose: 6.0 mg/kg/injection, schedule: Q01DX Z (ip), vehicle: saline) 164 % of control; (endpoint: mean survival time, dose: 6.0 mg/kg/injection, schedule: Q01DX Z (sc), vehicle: saline) 185 % of control; (endpoint: mean survival time, dose: 6.3 mg/kg/injection, schedule: Q01DX Z (ip), vehicle: saline) 86 % of control. Besides, the T/C is 181 % of control (endpoint: mean survival time, dose: 8.0 mg/kg/injection, schedule: Q01DX001 (ip), vehicle: carboxymethylcellulose (CMC)); 111 % of control and 122 % of control (endpoint: mean survival time, dose: 8.0 mg/kg/injection, schedule: Q01DX009 (ip), vehicle: saline); 167 % of control and 193 % of control (endpoint: mean survival time, dose: 10.0 mg/kg/injection, schedule: Q01DX009 (ip), vehicle: saline); 177 % of control (endpoint: mean survival time, dose: 10.0 mg/kg/injection, schedule: Q01DX010 (ip), vehicle: saline); 253 % of control (endpoint: mean survival time, dose: 12.0 mg/kg/injection, schedule: Q01DX001 (ip), vehicle: carboxymethylcellulose (CMC)); 123 % of control (endpoint: mean survival time, dose: 12.0 mg/kg/injection, schedule: Q01DX006 (iv), vehicle: saline). For the same compound, the T/C is, setting by setting: (endpoint: mean survival time, dose: 12.0 mg/kg/injection, schedule: Q01DX Z (oral), vehicle: saline) 90 % of control; (endpoint: mean survival time, dose: 12.0 mg/kg/injection, schedule: Q01DX Z (sc), vehicle: saline) 111 % of control; (endpoint: mean survival time, dose: 15.0 mg/kg/injection, schedule: Q01DX Z (ip), vehicle: carboxymethylcellulose (CMC)) 172 % of control; (endpoint: mean survival time, dose: 16.0 mg/kg/injection, schedule: Q01DX009 (ip), vehicle: saline) 93 % of control; (endpoint: mean survival time, dose: 16.0 mg/kg/injection, schedule: Q01DX Z (ip), vehicle: methylcellulose (MC)) 90 % of control; (endpoint: mean survival time, dose: 18.0 mg/kg/injection, schedule: Q01DX001 (ip), vehicle: carboxymethylcellulose (CMC)) 341 % of control. The T/C runs as follows: (endpoint: mean survival time, dose: 18.0 mg/kg/injection, schedule: Q01DX001 (ip), vehicle: saline) 202 % of control and 233 % of control; (endpoint: mean survival time, dose: 20.0 mg/kg/injection, schedule: Q01DX009 (ip), vehicle: saline) 94 % of control; (endpoint: mean survival time, dose: 20.0 mg/kg/injection, schedule: Q01DX010 (ip), vehicle: saline) 117 % of control; (endpoint: mean survival time, dose: 22.0 mg/kg/injection, schedule: Q01DX Z (ip), vehicle: carboxymethylcellulose (CMC)) 87 % of control; (endpoint: mean survival time, dose: 24.0 mg/kg/injection, schedule: Q01DX006 (iv), vehicle: saline) 123 % of control; (endpoint: mean survival time, dose: 25.0 mg/kg/injection, schedule: Q01DX001 (ip), vehicle: saline) 118 % of control and 229 % of control and 230 % of control. For the same compound, the T/C (endpoint: mean survival time, dose: 35.0 mg/kg/injection, schedule: Q01DX001 (ip), vehicle: saline) was 161 % of control and 240 % of control; the T/C (endpoint: mean survival time, dose: 50.0 mg/kg/injection, schedule: Q01DX001 (ip), vehicle: saline) was 87 % of control; the T/C (endpoint: median survival time, dose: 10.0 mg/kg/injection, schedule: Q01DX009 (ip), vehicle: saline) is 155 % of control and 156 % of control; the T/C (endpoint: median survival time, dose: 20.0 mg/kg/injection, schedule: Q01DX009 (ip), vehicle: saline) was 112 % of control.
With `C=CCOC(=O)Nc1ccccc1`, the T/C was 92 % of control and 90 % of control (endpoint: mean survival time, dose: 100.0 mg/kg/injection, schedule: Q01DX001 (ip), vehicle: Klucel (hydroxypropylcellulose) (HPC)); 106 % of control (endpoint: mean survival time, dose: 100.0 mg/kg/injection, schedule: Q01DX009 (ip), vehicle: Klucel (hydroxypropylcellulose) (HPC)); 93 % of control and 94 % of control (endpoint: mean survival time, dose: 200.0 mg/kg/injection, schedule: Q01DX001 (ip), vehicle: Klucel (hydroxypropylcellulose) (HPC)); 95 % of control (endpoint: mean survival time, dose: 200.0 mg/kg/injection, schedule: Q01DX009 (ip), vehicle: Klucel (hydroxypropylcellulose) (HPC)); 97 % of control (endpoint: mean survival time, dose: 300.0 mg/kg/injection, schedule: Q01DX001 (ip), vehicle: Klucel (hydroxypropylcellulose) (HPC)); 101 % of control (endpoint: mean survival time, dose: 400.0 mg/kg/injection, schedule: Q01DX009 (ip), vehicle: Klucel (hydroxypropylcellulose) (HPC)).
For `CCCCCC[Se]CCCCCC`, the T/C is 98 % of control (endpoint: mean survival time, dose: 12.5 mg/kg/injection, schedule: Q01DX009 (ip), vehicle: saline); 96 % of control (endpoint: mean survival time, dose: 25.0 mg/kg/injection, schedule: Q01DX009 (ip), vehicle: saline); 101 % of control (endpoint: mean survival time, dose: 25.0 mg/kg/injection, schedule: Q04DX003 (ip), vehicle: saline); 93 % of control and 102 % of control (endpoint: mean survival time, dose: 50.0 mg/kg/injection, schedule: Q01DX009 (ip), vehicle: saline); 97 % of control (endpoint: mean survival time, dose: 50.0 mg/kg/injection, schedule: Q04DX003 (ip), vehicle: saline); 98 % of control and 100 % of control (endpoint: mean survival time, dose: 100.0 mg/kg/injection, schedule: Q04DX003 (ip), vehicle: saline).
In the case of `O=C1c2ccccc2-c2ccc(N=C(NO)C(F)(F)F)cc21`, the T/C (endpoint: mean survival time, dose: 100.0 mg/kg/injection, schedule: Q01DX001 (ip), vehicle: carboxymethylcellulose (CMC)) was 118 % of control; the T/C (endpoint: mean survival time, dose: 200.0 mg/kg/injection, schedule: Q01DX001 (ip), vehicle: carboxymethylcellulose (CMC)) was 98 % of control; the T/C (endpoint: mean survival time, dose: 400.0 mg/kg/injection, schedule: Q01DX001 (ip), vehicle: carboxymethylcellulose (CMC)) was 98 % of control.
As for `O=C1/C(=C2\CCCc3ccc(Cl)cc32)CCc2ccc(Cl)cc21`, the T/C reads like this: (endpoint: mean survival time, dose: 100.0 mg/kg/injection, schedule: Q01DX009 (ip), vehicle: saline with Tween-80) 100 % of control; (endpoint: mean survival time, dose: 200.0 mg/kg/injection, schedule: Q01DX009 (ip), vehicle: saline with Tween-80) 97 % of control; (endpoint: mean survival time, dose: 400.0 mg/kg/injection, schedule: Q01DX009 (ip), vehicle: saline with Tween-80) 96 % of control.
Turning to `CC(C)(C)C(=O)CC(=O)C(C)(C)C.CC(C)(C)C(=O)CC(=O)C(C)(C)C.[Ni]`, the T/C is 100 % of control (endpoint: mean survival time, dose: 10.0 mg/kg/injection, schedule: Q04DX003 (ip), vehicle: saline); 94 % of control (endpoint: mean survival time, dose: 20.0 mg/kg/injection, schedule: Q04DX003 (ip), vehicle: saline); 117 % of control (endpoint: mean survival time, dose: 40.0 mg/kg/injection, schedule: Q04DX003 (ip), vehicle: saline).
